Literature values in US6444675B2, “4-alkyl and 4-cycloalkyl derivatives of dihydropyridine NPY antagonists” (Bristol-Myers Squibb Company, priority 2000, dated 2002).
Values belong to the compound of their own block, whether it stands above or below them.

Legend:
[1] = test system: NPY-related increases in diastolic blood pressure; conditions: anesthetized guinea pig model
[2] = biological target: T1, I-125 labeled NPY and PYY in human neuroblastoma cells (Homo sapiens, UniProt P25929)
T1 construct: displacing I-125 labeled NPY and PYY in human neuroblastoma cells; endogenous receptor
T1 sequence (P25929 1-384): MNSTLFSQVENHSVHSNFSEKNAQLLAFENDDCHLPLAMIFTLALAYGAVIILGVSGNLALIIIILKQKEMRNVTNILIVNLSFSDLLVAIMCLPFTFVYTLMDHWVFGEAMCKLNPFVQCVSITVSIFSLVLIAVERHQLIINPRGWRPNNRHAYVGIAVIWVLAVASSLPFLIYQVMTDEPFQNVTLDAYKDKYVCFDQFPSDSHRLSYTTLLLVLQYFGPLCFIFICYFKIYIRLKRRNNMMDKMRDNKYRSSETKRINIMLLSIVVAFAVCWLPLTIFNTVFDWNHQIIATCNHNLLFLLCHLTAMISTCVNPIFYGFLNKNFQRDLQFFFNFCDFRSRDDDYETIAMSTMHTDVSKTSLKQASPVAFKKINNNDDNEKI

[3] = biological target: T2, I-125 Bolton-Hunter labeled NPY in human neuroblastoma cells (SK-N-MC) (Homo sapiens, UniProt P25929)
T2 construct: displaces I-125 Bolton-Hunter labeled NPY in human neuroblastoma cells (SK-N-MC); host or cells: SK-N-MC human neuroblastoma cells (endogenous receptor)
T2 sequence (P25929 1-384): T1 sequence (P25929 1-384)

[4] = test system: NPY-induced pressor response; conditions: pithed rat
[5] = test system: NPY-induced increase in intracellular Ca++ in SK-N-MC cells
[6] = test system: NPY-induced contractions in guinea pig basilar artery

- displacement of I-125 labeled NPY and PYY [2]: displacing
SMILES: CN(C)CC1CCC(CN=C(N)c2ccc(C[C@@H](NC(=O)[C@@H](Cc3ccccc3)NS(=O)(=O)c3ccc4ccccc4c3)C(=O)N3CCCC3)cc2)CC1 (stereo partly drawn) [SR 120819A]
- antagonism of NPY-related increases in diastolic blood pressure [1]: antagonized

- displacement of I-125 Bolton-Hunter labeled NPY [3]: displaces
SMILES: NC(N)=NCCC[C@@H](NC(=O)C(c1ccccc1)c1ccccc1)C(=O)NCc1ccc(O)cc1 [BIBP 3226]
- antagonism of NPY-induced pressor response [4]: antagonizing
- antagonism of NPY-induced increase in intracellular Ca++ [5]: antagonized

SMILES: O=P(O)(O)OC1[C@H](OP(=O)(O)O)[C@H](O)C(O)[C@H](O)[C@H]1OP(=O)(O)O (stereo partly drawn) [D-Myo-inositol-1,2,6-triphosphate]
- antagonism of NPY-induced contractions [6]: potent but non-competitive antagonist
